US9908890B2, “Selective inhibitors of constitutive androstane receptor” (ST. JUDE CHILDREN'S RESEARCH HOSPITAL, priority 2014, dated 2018)

Tests used:
[1] = system: CAR- and PXR-regulated genes in human primary hepatocytes; assay: Quantitative real-time PCR in human primary hepatocytes; format: cell-based; conditions: three donors, 1 μM CITCO or 5 μM PK11195, 48 h
Source text: (§1) RNA was extracted, cDNA synthesized, and gene expression analyzed by performing real-time PCR using Taqman probes for each gene. […] LS174T cells were maintained in 10% charcoal-dextran-treated, FBS media for 4 days before the experiment. […] Briefly, human primary hepatocytes (HPH) were maintained in William's E media with supplements for 4 days before treatment. […] RNA extracted was used for cDNA synthesis and measured by performing quantitative real-time PCR assays with Taqman probes.
Briefly, human primary hepatocytes (donor 5) were maintained in William's E Media with supplements for 4 days prior to treatment. […] RNA extracted was used for cDNA synthesis and measured by quantitative real-time PCR with Taqman probes. CYP2B6 and CYP3A4 mRNA were normalized to the internal control 18S and DMSO-treated samples were set to 1.
(§2) Cell lines or human hepatocytes were treated with chemicals for 24-48 hours before RNA was extracted and purified by using the Maxwell 16LEV simplyRNA tissue kit (Promega). Then, cDNA was prepared from 2 μg of RNA, and diluted cDNA was used to perform quantitative RT-PCR assays by using TaqMan probes (ABI; 7500 Thermocycler) with 18S as the internal standard.

[2] = system: CAR-regulated genes in LS174T cells; assay: Quantitative real-time PCR in LS174T cells; format: cell-based; conditions: 1 μM CINPA1 or 5 μM PK11195, 24 h
Source text: as §1
Briefly, LS174T were maintained in 10% charcoal-dextran treated-FBS media for 4 days prior to the experiment. […] For the data shown in both FIG. 12A and FIG. 12B, RNA extracted was used for cDNA synthesis and measured by quantitative real-time PCR with Taqman probes. MDR1 mRNA was normalized to the internal control 18S and DMSO treated samples were set to 1. *, p<0.05 when compared to DMSO samples.
as §2

[3] = system: CAR binding to CYP2B6 and CYP3A4 promoter response elements; assay: Chromatin immunoprecipitation (CAR / RNA polymerase II occupancy at promoters); format: cell-based, human; conditions: human primary hepatocytes, 3 donors, overnight, 1 μM CITCO or 5 μM CINPA1
Procedure: FIG. 8B and FIG. 8C show the fold enrichment of CAR at CYP2B6-dNR3 and CYP2B6-PBREM sites, respectively, in the promoter region following the indicated treatment in human primary hepatocytes. […] Protein complexes were cross-linked and chromatin was immunoprecipitated by using anti-CAR antibody or control IgG. CAR occupancy at two separate CYP2B6 promoter regions (dNR3 and PBREM) was determined by performing quantitative RT-PCR assays. Fold-enrichment normalized to IgG control was plotted. Data represent the mean±SD of 3 experiments. *, p<0.01 comparing CITCO treatment to DMSO treatment.
FIG. 9A, FIG. 9B, and FIG. 9C show the fold enrichment of CAR at CYP2B6-dNR3, CYP3A4-XREM, and CYP2B6-dNR3 sites, respectively, in the promoter region following the indicated treatment in human primary hepatocytes or HepG2-hCAR1 cells, as indicated in the figures. Briefly, in FIG. 9A and FIG. […] 9C HepG2-hCAR1 stable cells were treated for […] with DMSO, 1 μM CITCO, 5 μM CINPA1, or 1 μM CITCO+5 μM CINPA1. Protein complexes were cross-linked and chromatin was immunoprecipitated by using anti-CAR antibody, anti-RNA polymerase II (RPol) antibody, or control IgG. CAR or RPol occupancy at the CYP2B6-dNR3 region and CYP3A4-XREM region was determined by performing quantitative RT-PCR assays. Fold-enrichment was normalized to IgG control. Data represent the mean±SD of 3 experiments. *, p<0.001 and #, p<0.01 comparing CITCO to DMSO samples. **, p<0.001 and ##, p<0.01 comparing CITCO+CINPA1 to CITCO samples.
ChIP was performed as described previously (Cherian, M. T., et al. (2012) J. Biol. Chem. 287, 23368-23380). Briefly, human hepatocytes in 6-well plates were maintained for 3-4 days in Williams E medium containing Primary Hepatocyte Maintenance Supplement (Life Technologies), with daily media changes. Nine wells were used for each treatment group. […] The HepG2-hCAR1 stable cells in FIG. 9 were treated with DMSO, 1 μM CITCO, 5 μM CINPA1, or 1 μM CITCO+5 μM CINPA1 for […]. In FIG. 9, the hepatocytes from donor 7 were treated with DMSO, 0.1 μM CITCO, 1 μM CINPA1, or 0.1 μM CITCO+1 μM CINPA1 for 45 min. Proteins were cross-linked with 1% formaldehyde for 10 min. Cell extracts were digested for 10 min with 50 units of micrococcal nuclease (New England Biolabs) at 37° C. and further sonicated to yield sheared DNA fragments having an average length of 200-1000 base pairs. The sonicated samples were pelleted by centrifugation, and the supernatant was diluted 3- to 5-fold with ChIP dilution buffer (0.01% SDS, 1.1% Triton X-100, 1.2 mM EDTA, 16.7 mM Tris-HCl, pH 8.1, 167 mM NaCl, and protease inhibitor cocktail). […] Quantitative RT-PCR assays were performed to determine the change in CAR occupancy at various sites of CAR binding. […]

| Compound | CYP2B6 mRNA level, compound alone [1] | CYP2B6 mRNA level [2] | CYP3A4 mRNA level [2] | MDR1 mRNA level [2] | CAR recruitment to XREM (dNR3) of the CYP2B6 gene [3] |
| --- | --- | --- | --- | --- | --- |
| CCC(C)N(C)C(=O)c1cc2ccccc2c(-c2ccccc2Cl)n1 (stereo not drawn) [PK11195, reference compound] | increased CYP2B6 transcription | reduced the levels of CYP2B6 | increased that of CYP3A4 | reduced MDR1 levels | – |
| Clc1ccc(-c2nc3sccn3c2/C=N/OCc2ccc(Cl)c(Cl)c2)cc1 [CITCO, 6-(4-chlorophenyl)imidazo [2,1-b][1,3]thiazole-5-carbaldehyde O-(3,4-dichlorobenzyl) oxime, reference compound] | induced CYP2B6 levels | – | – | – | enhances recruitment of CAR |
